Test [1] deals with T1, Recombinant human His6-USP1/His6-UAF1 complex protein (Homo sapiens, UniProt O94782).
T1 construct: His6; purchased R&D E-568-050
Briefly: In vitro inhibitory activity against USP1 (Ubiquitin Rhodamine 110 fluorescence detection, 384-well plate). The test is classed as biochemical. To be noted: Ub-Rho substrate, 1 hour pre-incubation, read after 30 minutes. Summed up: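 Fluorescence assay measuring inhibition of recombinant human His6-USP1/His6-UAF1 complex with Ubiquitin-Rhodamine 110 substrate. Compounds held as 50 mM stocks in 100% DMSO and dispensed by acoustic transfer into modified Tris assay buffer.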

A further test concerns MDA-MB-436. Briefly: CTG experiment for cell viability (CellTiter-Glo, 96-well plate, 7 days). The test is classed as cell-based. To be noted: Homo sapiens, MDA-MB-436, 168 h, MDA-MB-436 cells, 7 days culture with compound. In a few lines: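 MDA-MB-436 cells in DMEM were plated in 96-well format, treated with compounds, and cultured 7 days at 37°C. After removing the medium, cells were given PBS plus CellTiter-Glo reagent, incubated 10 min at room temperature, and luminescence was read. Curves were fitted as for the enzyme assay.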
Background: Cellular ATP, detected with luciferase, serves as a proxy for viable cell number.

Molecules are shown by their SMILES.

T1 sequence (O94782 whole entry): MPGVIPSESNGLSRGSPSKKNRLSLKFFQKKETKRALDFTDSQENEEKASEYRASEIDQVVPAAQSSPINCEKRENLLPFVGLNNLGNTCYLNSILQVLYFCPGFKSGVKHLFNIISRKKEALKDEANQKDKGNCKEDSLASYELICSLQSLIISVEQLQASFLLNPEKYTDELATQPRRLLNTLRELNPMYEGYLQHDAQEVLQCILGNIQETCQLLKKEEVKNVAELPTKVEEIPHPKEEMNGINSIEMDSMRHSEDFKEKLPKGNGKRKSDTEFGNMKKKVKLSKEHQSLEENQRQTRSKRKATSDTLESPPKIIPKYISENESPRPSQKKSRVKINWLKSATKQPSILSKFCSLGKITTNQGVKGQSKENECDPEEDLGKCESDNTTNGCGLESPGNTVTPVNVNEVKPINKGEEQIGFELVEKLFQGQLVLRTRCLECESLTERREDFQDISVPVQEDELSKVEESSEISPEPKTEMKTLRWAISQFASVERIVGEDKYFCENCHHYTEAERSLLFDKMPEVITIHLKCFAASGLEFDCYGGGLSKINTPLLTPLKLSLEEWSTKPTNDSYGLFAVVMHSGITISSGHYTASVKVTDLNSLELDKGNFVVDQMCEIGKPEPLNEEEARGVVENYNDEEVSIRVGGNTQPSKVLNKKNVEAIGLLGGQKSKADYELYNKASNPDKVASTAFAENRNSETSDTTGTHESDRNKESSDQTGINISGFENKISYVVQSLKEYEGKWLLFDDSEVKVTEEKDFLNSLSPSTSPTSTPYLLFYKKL
T1 sequence (Q8TAF3 whole entry partner): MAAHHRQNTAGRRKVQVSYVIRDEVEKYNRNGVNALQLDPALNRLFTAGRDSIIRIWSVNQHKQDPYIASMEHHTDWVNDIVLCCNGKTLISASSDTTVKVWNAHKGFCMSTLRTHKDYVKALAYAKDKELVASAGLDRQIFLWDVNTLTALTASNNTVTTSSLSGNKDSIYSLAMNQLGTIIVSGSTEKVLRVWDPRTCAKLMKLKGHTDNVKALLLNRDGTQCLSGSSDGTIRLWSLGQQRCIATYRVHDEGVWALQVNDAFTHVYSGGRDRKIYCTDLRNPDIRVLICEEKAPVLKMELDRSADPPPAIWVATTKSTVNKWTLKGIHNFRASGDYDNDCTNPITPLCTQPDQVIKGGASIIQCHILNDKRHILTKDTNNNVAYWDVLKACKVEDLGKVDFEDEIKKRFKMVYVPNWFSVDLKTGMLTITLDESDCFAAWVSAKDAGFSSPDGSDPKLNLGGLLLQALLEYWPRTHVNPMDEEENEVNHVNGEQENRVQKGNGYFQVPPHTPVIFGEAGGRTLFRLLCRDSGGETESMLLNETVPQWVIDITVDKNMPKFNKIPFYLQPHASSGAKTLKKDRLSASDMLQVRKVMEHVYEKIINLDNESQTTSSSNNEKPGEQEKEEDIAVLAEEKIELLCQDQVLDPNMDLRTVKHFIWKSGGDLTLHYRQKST

Turning to `COc1cnc(-c2cccnc2C2CC2)nc1NCc1ccc(-n2nc(C(F)(F)F)cc2C)cc1` [Example 154, 2-(2-Cyclopropylpyridin-3-yl)-5-methoxy-N-(4-(5-methyl-3-(trifluoromethyl)-1H-pyrazol-1-yl)benzyl)pyrimidin-4-amine], the IC50 in test [1] came to 6.2 nM; in the test with MDA-MB-436, 7.3 nM.
Regarding `COc1cnc(-c2ccccc2C(C)C)nc1NCC12CCC(c3ccc(C(F)(F)F)cn3)(CC1)CC2` [Example 23, 2-(2-Isopropylphenyl)-5-methoxy-N-((4-(5-(trifluoromethyl)pyridin-2-yl)bicyclo[2.2.2]octan-1-yl)methyl)pyrimidin-4-amine], the values for the IC50 (in test [1]; in the test with MDA-MB-436) were 33 nM and 33.1 nM, respectively.
Take `[2H]C([2H])([2H])Oc1ncnc(C2CC2)c1-c1ncc(OC)c(N(C[C@H]2CC[C@H](c3nc(C(F)(F)F)cn3C)CC2)C([2H])([2H])[2H])n1` [Example S24, 4'-Cyclopropyl-5-methoxy-6'-(methoxy-D3)-N-(methyl-D3)-N(((1R,4R)-4-(1-methyl-4-(trifluoromethyl)-1H-imidazol-2-yl)cyclohexyl)methyl)-[2,5'-bipyrimidin]-4-amine]: the IC50 in test [1] stood at 5.7 nM; in the test on MDA-MB-436 it was 4.6 nM.
On to `CC(C)Oc1cnc(-c2ccccc2C(C)C)nc1NCC1CCN(c2nc(C(F)(F)F)cn2C)CC1` [Example 72, 5-Isopropoxy-2-(2-isopropylphenyl)-N-((1-(1-methyl-4-(trifluoromethyl)-1H-imidazol-2-yl)piperidin-4-yl)methyl)pyrimidin-4-amine], for which the IC50 turned out to be 6.1 nM in test [1] and 181 nM in the test with MDA-MB-436.
Regarding `COc1cnc(-c2ccccc2N(C)C)nc1NCc1ccc(-n2nc(C(F)(F)F)cc2C)cc1` [Example 160, 2-(2-(Dimethylamino)phenyl)-5-methoxy-N-(4-(5-methyl-3-(trifluoromethyl)-1H-pyrazol-1-yl)benzyl)pyrimidin-4-amine], the IC50 in test [1] came out at 3.6 nM; in the test with MDA-MB-436 it was 121 nM.
Turning to `COc1cc(-c2nc(C(F)(F)F)cn2C)ccc1CNc1nc(-c2ccccc2C2CC2)nc2ccoc12` [Example 175, 2-(2-Cyclopropylphenyl)-N-(2-methoxy-4-(1-methyl-4-(trifluoromethyl)-1H-imidazol-2-yl)benzyl)furo[3,2-d]pyrimidin-4-amine], the IC50 in test [1] was found to be 3.6 nM; with MDA-MB-436, 87.1 nM.
Consider `COc1cc(CNc2nc(-c3ccccc3C(C)C)nc3ccoc23)ccc1-n1nc(C(F)(F)F)cc1C` [Example 84, 2-(2-Isopropylphenyl)-N-(3-methoxy-4-(5-methyl-3-(trifluoromethyl)-1H-pyrazol-1-yl)benzyl)furo[3,2-d]pyrimidin-4-amine], for which the results for the IC50 (in test [1]; with MDA-MB-436) were 9 nM and 704 nM, respectively.
For `COc1ncnc(C2CC2)c1-c1ncc(OC(F)F)c(NCc2ccc(-c3nc(C(F)(F)F)cn3C)cc2)n1` [Example 134, 4'-Cyclopropyl-5-(difluoromethoxy)-6'-methoxy-N-(4-(1-methyl-4-(trifluoromethyl)-1H-imidazol-2-yl)benzyl)-[2,5'-bipyrimidin]-4-amine], the IC50 in test [1] was found to be 3.2 nM; in the test on MDA-MB-436, 34.1 nM.
As for `COc1cnc(-c2c(Cl)cnn2C(C)C)nc1N(C)CC12CCC(c3nc(C(F)(F)F)cn3C3CCC3)(CC1)OC2` [Example S12, 2-(4-Chloro-1-isopropyl-1H-pyrazol-5-yl)-N-((1-(1-cyclobutyl-4-(trifluoromethyl)-1H-imidazol-2-yl)-2-oxabicyclo[2.2.2]oct-4-yl)methyl)-5-methoxy-N-methylpyrimidin-4-amine], the IC50 is 35 nM in test [1] and 168 nM in the test with MDA-MB-436.
The corresponding values for `COc1ncnc(C2CC2)c1-c1ncc(Cl)c(NCc2ccc(-c3nc(C(F)(F)F)cn3C3CC3)cc2)n1` [Example 125, 5-Chloro-4'-cyclopropyl-N-(4-(1-cyclopropyl-4-(trifluoromethyl)-1H-imidazol-2-yl)benzyl)-6'-methoxy-[2,5'-bipyrimidin]-4-amine] are 3.1 nM and 0.5 nM.
As to `COc1cnc(-c2c(OC)cnn2C(C)C)nc1NCC1CCN(c2nc(C(F)(F)F)cn2C)CC1` [Example 179, 2-(1-Isopropyl-4-methoxy-1H-pyrazol-5-yl)-5-methoxy-N-((1-(1-methyl-4-(trifluoromcthyl)-1H-imidazol-2-yl)piperidin-4-yl)methyl)pyrimidin-4-amine], the IC50 in test [1] stood at 56 nM; in the test on MDA-MB-436 it was 197 nM.
On to `COc1cnc(-c2c(OC)ncnc2C2CC2)nc1NCc1ccc(OCc2ccccn2)cc1` [Example 98, 4'-Cyclopropyl-5,6'-dimethoxy-N-(4-(pyridin-2-ylmethoxy)benzyl)-[2,5'-bipyrimidin]-4-amine], for which the IC50 was 144 nM in test [1] and 694 nM in the test with MDA-MB-436.
Regarding `[2H]C([2H])([2H])N(Cc1ccc(-c2nc(C(F)(F)F)cn2C(C)C)cc1)c1nc(-c2c(OC)ncnc2C2CC2)ncc1F` [Example 129, 4'-Cyclopropyl-5-fluoro-N-(4-(1-isopropyl-4-(trifluoromethyl)-1H-imidazol-2-yl)benzyl)-6'-methoxy-N-(methyl-d3)-[2,5'-bipyrimidin]-4-amine], the IC50 in test [1] is 9 nM; with MDA-MB-436, 12.6 nM.
The corresponding values for `COc1ncnc(C2CC2)c1-c1ncc(CO)c(NCc2ccc(-c3nc(C(F)(F)F)cn3C(C)C)cc2)n1` [Example 137, (4'-Cyclopropyl-4-((4-(1-isopropyl-4-(trifluoromethyl)-1H-imidazol-2-yl)benzyl)amino)-6'-methoxy-[2,5'-bipyrimidin]-5-yl)methanol] are 24 nM and 216 nM.
Turning to `CC(C)c1ccccc1-c1ncc(C(F)(F)F)c(NCc2ccc(-c3nc(C(F)(F)F)cn3C)cc2)n1` [Example 17, 2-(2-Isopropylphenyl)-N-(4-(1-methyl-4-(trifluoromethyl)-1H-imidazol-2-yl)benzyl)-5-(trifluoromethyl)pyrimidin-4-amine], the IC50 in test [1] was determined as 3.9 nM; in the test with MDA-MB-436 it was 103 nM.
On to `CC(C)Oc1cnc(-c2ccccc2C(C)C)nc1NCc1ccc(-c2nc(C(F)(F)F)cn2C)cc1` [Example 73, 5-Isopropoxy-2-(2-isopropylphenyl)-N-(4-(1-methyl-4-(trifluoromethyl)-1H-imidazol-2-yl)benzyl)pyrimidin-4-amine], for which the IC50 in test [1] turned out to be 3.6 nM; in the test on MDA-MB-436, 112 nM.
Consider `COc1cc(-c2nc(C(F)(F)F)cn2C)ccc1CNc1nc(-c2c(OC)ncnc2C2CC2)ncc1OC` [Example 100, 4'-Cyclopropyl-5,6'-dimethoxy-N-(2-methoxy-4-(1-methyl-4-(trifluoromethyl)-1H-imidazol-2-yl)benzyl)-[2,5'-bipyrimidin]-4-amine], for which the IC50 in test [1] was 4.1 nM; in the test with MDA-MB-436, 27.8 nM.
The corresponding values for `COc1cnc(-c2c(OC)ncnc2C2CC2)nc1N(Cc1ccc(-c2nc(C(F)(F)F)cn2C)cc1)C1CC1` [Example 141, N,4'-Dicyclopropyl-5,6'-dimethoxy-N-(4-(1-methyl-4-(trifluoromethyl)-1H-imidazol-2-yl)benzyl)-[2,5'-bipyrimidin]-4-amine] are 9.5 nM and 76.7 nM.
The corresponding values for `Cc1noc(C(C)C)c1-c1ncc(OC(F)F)c(NCc2ccc(-c3nc(C(F)(F)F)cn3C)cc2)n1` [Example 190, 5-(Difluoromethoxy)-2-(5-isopropyl-3-methylisoxazol-4-yl)-N-(4-(1-methyl-4-(trifluoromethyl)-1H-imidazol-2-yl)benzyl)pyrimidin-4-amine] are 33 nM and 339 nM.
For the compound `COc1cnc(-c2cccnc2C2CC2)nc1N(C)CC1CCN(c2ccccn2)CC1` [Example 151, 2-(2-Cyclopropylpyridin-3-yl)-5-methoxy-N-methyl-N-((1-(pyridin-2-yl)piperidin-4-yl)methyl)pyrimidin-4-amine], the values for the IC50 (in test [1]; in the test on MDA-MB-436) were 72 nM and 58.4 nM, respectively.
For `CC(C)c1ccccc1-c1ncc(C(F)(F)F)c(NCC2CCN(c3nc(C(F)(F)F)cn3C)CC2)n1` [Example 75, 2-(2-Isopropylphenyl)-N-((1-(1-methyl-4-(trifluoromethyl)-1H-imidazol-2-yl)piperidin-4-yl)methyl)-5-(trifluoromethyl)pyrimidin-4-amine] the same measures were 3.7 nM and 331 nM.
For `COc1cnc(-c2c(OC)ncnc2C2CC2(F)F)nc1N(C)CC1CCC(c2nc(C(F)(F)F)cn2C)CC1` [Example S49, 4'-(2,2-difluorocyclopropyl)-5,6'-dimethoxy-N-methyl-N-((1R,4R)-4-(1-methyl-4-(trifluoromethyl)-1H-imidazol-2-yl)cyclohexyl)methyl)-[2,5'-bipyrimidin]-4-amine] the same measures were 3.1 nM and 0.7 nM.
With `COc1cnc(-c2ccccc2C(C)C)nc1NCC1CCN(c2ccccn2)CC1` [Example 5, 2-(2-Isopropylphenyl)-5-methoxy-N-((1-(pyridin-2-yl)piperidin-4-yl)methyl)pyrimidin-4-amine], the IC50 in test [1] was 7.6 nM; in the test with MDA-MB-436, 113 nM.
The corresponding values for `COc1cnc(-c2c(OC)ncnc2C2CC2)nc1NCc1ccc(-c2nc(C(F)(F)F)cn2CF)cc1` [Example 107, 4'-Cyclopropyl-N-(4-(1-(fluoromethyl)-4-(trifluoromethyl)-1H-imidazol-2-yl)benzyl)-5,6'-dimethoxy-[2,5'-bipyrimidin]-4-amine] are 16 nM and 17.5 nM.
Consider `COc1ncnc(C2CC2)c1-c1ncc(Cl)c(NCc2ccc(-c3nc(C(F)(F)F)cn3C)cc2)n1` [Example 124, 5-Chloro-4'-cyclopropyl-6'-methoxy-N-(4-(1-methyl-4-(trifluoromethyl)-1H-imidazol-2-yl)benzyl)-[2,5'-bipyrimidin]-4-amine], for which the IC50 in test [1] turned out to be 6.1 nM; with MDA-MB-436, 13.2 nM.

The term IC50 denotes the concentration that inhibits the measured activity by half.

The values are drawn from patent EP4741386A1 (Jiangsu Yahong Meditech Co., Ltd., priority 2023, dated 2025).
